In article PMC10672842, “Anti-Trypanosoma cruzi Activity, Mutagenicity, Hepatocytotoxicity and Nitroreductase Enzyme Evaluation of 3-Nitrotriazole, 2-Nitroimidazole and Triazole Derivatives” (Molecules, 2023):
Where two headings read alike, the source gives them in different places.

Key:
S. typhimurium TA98 = assay: Salmonella reverse mutation assay (Ames test, preincubation), TA98
Protocol: (§1) The compounds were tested in a reverse mutation assay preincubation protocol in the absence and presence of metabolic activation following standard protocols previously proposed by Maron and Ames. The histidine-dependent (his^−) strains TA98 and TA100 of Salmonella typhimurium were inoculated in 10 mL of Oxoid nutrient broth No. 2 containing 25 µg/mL ampicillin and incubated overnight (15–18 h) at 37 ± 1 °C on an orbital shaker (CT-712, Cientec, Belo Horizonte, MG, Brazil) at 150 rpm, obtaining a concentration of 1–2 × 10^9 cells/mL, confirmed by titration in nutrient agar plates. Briefly, 100 µL of stationary growth cultures of each strain were preincubated for 20 min on an orbital shaker (150 rpm) at 37 ± 1 °C, with 500 µL of 0.2 M phosphate buffer pH 7.4, or 500 µL of S9 mix 4% (Molecular Toxicology, Baltimore, MD, USA), and 100 µL of compound dilutions (0–5000 µM) or controls. DMSO 1% was used as a negative control. […] After incubation, 2 mL of top agar (0.7% agar, 0.5% NaCl, 0.05 mM L-histidine and D-biotin) at 45 ± 3 °C was added and gently mixed. The final mixture was poured on glucose minimal agar plates (1.5% agar, 10 g/L MgSO4·7H2O; 100 g/L of C6H8O7·H2O; 500 g/L K2HPO4; 175 g/L Na(NH4)HPO4·4H2O, 2% glucose) and incubated for 72 h at 37 ± 1 °C. The results were expressed as the mean of revertant colonies (His^+) per plate, standard deviation (SD) and mutagenicity induction fold (IF), calculated as the ratio between the number of colonies in the test group and the number of colonies in the negative control group. Mutagenic potency was calculated as the slope of the linear portion of the concentration–response function and expressed as revertants/µM. All assays were performed in triplicate and repeated at least two times. Statistical analyses were carried out in GraphPad Prism software (version 5.00, GraphPad Software, Boston, MA, USA).

S. typhimurium TA100 = system: S. typhimurium TA100
Protocol: as §1

[1] = system: T. cruzi nitroreductase enzyme (TcNTR); assay: Kinetic assay with Trypanosoma cruzi nitroreductase enzyme (NADH oxidation); format: biochemical
Protocol: To determine a potential mechanism of action, nitroazole derivatives 5, 6, 8 and 9 were evaluated as substrates of the T. cruzi nitroreductase enzyme (TcNTR) and compared to BZN, the reference prodrug (Table 2). The enzymatic activity was measured by monitoring the oxidation of NADH, the first substrate of the enzyme, via spectrophotometric assays. […] At a concentration of 25 µM, derivatives 5 and 8 were metabolized at rates 2.3 and 2.6 times higher than that of BZN, respectively. At 50 µM, the compounds presented metabolism rates 1.6 and 3.0 times higher than that of BZN, respectively.
The protocols for expressing, purifying and conducting kinetic analysis with the recombinant TcNTR enzyme were adapted from the methods originally developed by Shane Wilkinson, with certain modifications.
For the kinetics assays, it was prepared a 200 μL solution which included 50 mM Tris-Base at pH 7.5, with a constant concentration of both NADH (50 μM) and the substances 5, 6, 8, 9 or BZN. Specifically, two distinct fixed concentrations (25 and 50 μM) of the substances 5, 6, 8, 9 or BZN were tested. These prepared mixtures were then incubated for 5 min at room temperature. Subsequently, the reaction was initiated by adding NTR to achieve a final concentration of 10 μg/mL. The reaction rates were monitored using a Hitachi U-2900 spectrophotometer, measuring the consumption of the primary substrate, NADH (λ = 340 nm; ε = 6.220 M^−1 cm^−1), over a 2-min interval. The resulting data curves were analyzed through linear regression using OriginPro 2016 software. To evaluate the reaction rate (Kobs) obtained from the 25 and 50 μM concentrations of each substrate, comparisons were made with the reference values for BZN. Measurement errors were calculated using the formula: Error = Z × σ/√n, where ‘Z’ denotes the critical value, ‘σ’ represents the standard deviation and ‘n’ is the number of test measurements, which were performed at least in triplicate.

Structure (SMILES): O=C(Cn1ccnc1[N+](=O)[O-])NCc1ccccc1 [BZN, benznidazole, reference compound]
- IF (induction factor) (S. typhimurium TA98; TA98, +S9, 0.5 µM): 0.9
- revertant His+ colonies, mean ± SD (S. typhimurium TA98; TA98, +S9, 0.5 µM): 21 ± 2
- IF (induction factor) (S. typhimurium TA98; TA98, +S9, 5 µM): 0.9
- revertant His+ colonies, mean ± SD (S. typhimurium TA98; TA98, +S9, 5 µM): 17 ± 2
- IF (induction factor) (S. typhimurium TA98; TA98, +S9, 50 µM): 0.7
- revertant His+ colonies, mean ± SD (S. typhimurium TA98; TA98, +S9, 50 µM): 18 ± 1
- IF (induction factor) (S. typhimurium TA98; TA98, +S9, 500 µM): 1.3
- revertant His+ colonies, mean ± SD (S. typhimurium TA98; TA98, +S9, 500 µM): 31 ± 6
- IF (induction factor) (S. typhimurium TA98; TA98, +S9, 5000 µM): 1.4
- revertant His+ colonies, mean ± SD (S. typhimurium TA98; TA98, +S9, 5000 µM): 33 ± 4
- IF (induction factor) (S. typhimurium TA98; TA98, −S9, 0.5 µM): 1.1
- revertant His+ colonies, mean ± SD (S. typhimurium TA98; TA98, −S9, 0.5 µM): 28 ± 6
- IF (induction factor) (S. typhimurium TA98; TA98, −S9, 5 µM): 1.1
- revertant His+ colonies, mean ± SD (S. typhimurium TA98; TA98, −S9, 5 µM): 28 ± 4
- IF (induction factor) (S. typhimurium TA98; TA98, −S9, 50 µM): 1.1
- revertant His+ colonies, mean ± SD (S. typhimurium TA98; TA98, −S9, 50 µM): 28 ± 2
- IF (induction factor) (S. typhimurium TA98; TA98, −S9, 500 µM): 1.4
- revertant His+ colonies, mean ± SD (S. typhimurium TA98; TA98, −S9, 500 µM): 37 ± 5
- IF (induction factor) (S. typhimurium TA98; TA98, −S9, 5000 µM): 2.5
- revertant His+ colonies, mean ± SD (S. typhimurium TA98; TA98, −S9, 5000 µM): 67 ± 4
- Mutagenic potency (slope of the linear portion of the concentration–response function) (S. typhimurium TA100; TA100, +S9): 1382.2 revertants/µM
- IF (induction factor) (S. typhimurium TA100; TA100, +S9, 0.5 µM): 0.9
- revertant His+ colonies, mean ± SD (S. typhimurium TA100; TA100, +S9, 0.5 µM): 95 ± 3
- IF (induction factor) (S. typhimurium TA100; TA100, +S9, 5 µM): 1.0
- revertant His+ colonies, mean ± SD (S. typhimurium TA100; TA100, +S9, 5 µM): 110 ± 8
- IF (induction factor) (S. typhimurium TA100; TA100, +S9, 50 µM): 2.5
- revertant His+ colonies, mean ± SD (S. typhimurium TA100; TA100, +S9, 50 µM): 269 ± 13
- IF (induction factor) (S. typhimurium TA100; TA100, +S9, 500 µM): 8.6
- revertant His+ colonies, mean ± SD (S. typhimurium TA100; TA100, +S9, 500 µM): 907 ± 10
- Mutagenicity in the Ames test (verdict) (S. typhimurium TA100; TA100, absence or presence of metabolic activation): mutagenic
- Mutagenic potency (slope of the linear portion of the concentration–response function) (S. typhimurium TA100; TA100, −S9): 1789.9 revertants/µM
- IF (induction factor) (S. typhimurium TA100; TA100, −S9, 0.5 µM): 1.0
- revertant His+ colonies, mean ± SD (S. typhimurium TA100; TA100, −S9, 0.5 µM): 130 ± 6
- IF (induction factor) (S. typhimurium TA100; TA100, −S9, 5 µM): 1.6
- revertant His+ colonies, mean ± SD (S. typhimurium TA100; TA100, −S9, 5 µM): 217 ± 13
- IF (induction factor) (S. typhimurium TA100; TA100, −S9, 50 µM): 6.2
- revertant His+ colonies, mean ± SD (S. typhimurium TA100; TA100, −S9, 50 µM): 852 ± 40
- IF (induction factor) (S. typhimurium TA100; TA100, −S9, 500 µM): 28.2
- revertant His+ colonies, mean ± SD (S. typhimurium TA100; TA100, −S9, 500 µM): 3848 ± 11
- IF (induction factor) (S. typhimurium TA100; TA100, −S9, 5000 µM): 53.0
- revertant His+ colonies, mean ± SD (S. typhimurium TA100; TA100, −S9, 5000 µM): 7264 ± 62
- Mutagen classification according to Claxton et al. (S. typhimurium TA100; TA100, −S9 and +S9): extremely high mutagen
- Kobs ([1]; 25 µM Derivative + 50 µM NADH): 0.36 µmol of oxidized NADH/min/mg TcNTR
- Kobs ([1]; 50 µM Derivative + 50 µM NADH): 0.36 µmol of oxidized NADH/min/mg TcNTR
